PMC8837726 (Chirality, 2021)
Read-outs that look alike come from different tables or passages of the source.

What was measured:
[1] = tested on: GLP-1 secretion from mouse secretin tumor (mSTC-1) intestinal enteroendocrine cells; test: ELISA primary assay: GLP-1 secretion from mSTC-1 cells, percent stimulation; type: cell-based; details: for mSTC-1 GLP1 Sec %Stim@2 μM: 2 μM test compound; for mSTC-1 GLP1 Sec %Stim@2 μM / mSTC-1 GLP1 Sec %Stim@20 μM: mSTC-1 cells, ELISA; for mSTC-1 GLP1 Sec %Stim@20 μM: 20 μM test compound; for activation at 20 µM: Mus musculus, read-out: mSTC-1 GLP1 Sec %Stim@20 μM
[2] = tested on: GLP-1 secretion from mSTC-1 cells; test: Concentration-response curve; type: cell-based, mouse
[3] = tested on: GLP-1 release from hNCI-H716 colorectal adenocarcinoma cell line; test: CRC EC50 in GLP-1 release from hNCI-H716 cells; type: cell-based; details: Homo sapiens, read-out: hNCI-H716 GLP1 Sec CRC EC50
in vitro [4] = details: mouse, mSTC-1 cells
in vitro [5] = details: human, hNCI-H716 colorectal adenocarcinoma cells
[6] = Mus musculus, read-out: mSTC-1 GLP1 Sec CRC EC50, mSTC-1 cells, concentration-response curve
[7] = read-out: mSTC-1 GLP1 Sec CRC EC50, mSTC-1 cells, concentration-response curve

Compound	mSTC-1 GLP1 Sec %Stim@2 μM [1]	mSTC-1 GLP1 Sec %Stim@20 μM [1]	EC50 [2, 6]	EC50 [2, 7]	EC50 [3]	EC50 (in vitro [4])	EC50 (in vitro [5])	activation at 20 µM [1]
COc1ccc2c(c1)[C@@H](NC(=O)OCc1ccccc1)[C@H](C)[C@@H](c1ccccc1)N2 [Compound 5a, benzyl (2S,3R,4S)-6-methoxy-3-methyl-2-phenyl-1,2,3,4-tetrahydroquinolin-4-ylcarbamate]	2%	68%	< 10 µM	5.3 µM	> 40 µM	> 40 µM	> 40 µM	–
COc1ccc2c(c1)[C@@H](NC(=O)OCc1ccccc1)[C@H](C)[C@@H](C(C)C)N2 [Compound 5b, Benzyl ((2R,3R,4S)-2-isopropyl-6-methoxy-3-methyl-1,2,3,4-tetrahydroquinolin-4-yl)carbamate]	0%	98%	10.8 µM	–	> 40 µM	> 40 µM	> 40 µM	–
CC[C@H]1Nc2ccc(NC(=O)OC(C)(C)C)cc2[C@@H](NC(=O)OCc2ccccc2)[C@@H]1C [Compound 5e, Benzyl tert-butyl ((2R,3R,4S)-2-ethyl-3-methyl-1,2,3,4-tetrahydroquinoline-4,6-diyl)dicarbamate]	–	–	–	–	–	–	–	0%
COc1ccc2c(c1)[C@@H](NC(=O)OCc1ccccc1)[C@H](C)[C@@H](c1cccnc1)N2 [Compound 5f, Benzyl (2S,3R,4S)-6-methoxy-3-methyl-2-(pyridin-3-yl)-1,2,3,4-tetrahydroquinolin-4-ylcarbamate]	0%	22%	–	–	–	–	–	–
COc1ccc2c(c1)[C@@H](NC(=O)OCc1ccccc1)[C@H](C)[C@@H](c1ccccc1)N2Cc1cccc(F)c1 [Compound 6a, Benzyl(2S,3S,4S)-1-(3-fluorobenzyl)-6-methoxy-3-methyl-2phenyl-1,2,3,4-tetrahydroquinolin-4-ylcarbamate]	8%	40%	> 40 µM	–	> 40 µM	> 40 µM	> 40 µM	–
COc1ccc2c(c1)[C@@H](NC(=O)OCc1ccccc1)[C@H](C)[C@@H](c1ccccc1)N2Cc1ccccn1 [Compound 6c, Benzyl (2S,3S,4S)-6-methoxy-3-methyl-2-phenyl-1-(pyridin-2-ylmethyl)-1,2,3,4-tetrahydroquinolin-4-ylcarbamate]	–	–	–	–	–	–	–	0%
COc1ccc2c(c1)[C@@H](NC(=O)OCc1ccccc1)[C@H](C)[C@@H](c1ccccc1)N2C(=O)NC(C)C [Compound 6g, Benzyl ((2S,3S,4S)-1-(isopropylcarbamoyl)-6-methoxy-3-methyl-2-phenyl-1,2,3,4-tetrahydroquinolin-4-yl)carbamate]	–	–	–	–	–	–	–	0%
COc1ccc2c(c1)[C@@H](NCc1nccs1)[C@H](C)[C@@H](c1ccccc1)N2C(=O)NC(C)C [Compound 8d, (2S,3S,4S)-N-Isopropyl-6-methoxy-3-methyl-2-phenyl-4-((thiazol-2-ylmethyl)amino)-3,4-dihydroquinoline-1(2H)-carboxamide]	0%	28%	> 40 µM	–	> 40 µM	> 40 µM	> 40 µM	–
COc1ccc2c(c1)[C@@H](NCc1ccccn1)[C@H](C)[C@@H](c1ccccc1)N2C(=O)NC(C)C [Compound 8e, (2S,3S,4S)-N-isopropyl-6-methoxy-3-methyl-2-phenyl-4-((pyridin-2-ylmethyl)amino)-3,4-dihydroquinoline-1(2H)-carboxamide]	–	–	–	–	–	–	–	0%
COc1ccc2c(c1)[C@@H](NC(=O)c1c(C)noc1C)[C@H](C)[C@@H](c1ccccc1)N2C(=O)NC(C)C [Compound 8f, N-((2S,3S,4S)-1-(Isopropylcarbamoyl)-6-methoxy-3-methyl-2-phenyl-1,2,3,4-tetrahydroquinolin-4-yl)-3,5-dimethylisoxazole-4-carboxamide]	–	–	–	–	–	–	–	0%
COc1ccc2c(c1)[C@@H](NC(C)=O)[C@H](C)[C@@H](c1ccccc1)N2C(=O)Nc1ccc(C(F)(F)F)cc1 [Compound 8i, (2S,3S,4S)-4-Acetamido-6-methoxy-3-methyl-2-phenyl-N-(4-(trifluoromethyl)phenyl)-3,4-dihydroquinoline-1(2H)-carboxamide]	–	–	–	–	–	–	–	0%
COc1ccc2c(c1)[C@@H](NC(=O)c1c(C)noc1C)[C@H](C)[C@@H](c1ccccc1)N2Cc1cccc(F)c1 [Compound 8j, N-((2S,3S,4S)-1-(3-Fluorobenzyl)-6-methoxy-3-methyl-2-phenyl-1,2,3,4-tetrahydroquinolin-4-yl)-3,5-dimethylisoxazole-4-carboxamide]	–	–	–	–	–	–	–	0%
COc1ccc2c(c1)[C@@H](NS(C)(=O)=O)[C@H](C)[C@@H](c1ccccc1)N2Cc1cccc(F)c1 [Compound 8k, N-((2S,3R,4S)-1-(3-Fluorobenzyl)-6-methoxy-3-methyl-2-phenyl-1,2,3,4-tetrahydroquinolin-4-yl)methanesulfonamide]	0%	53%	< 10 µM	8.3 µM	> 40 µM	> 40 µM	> 40 µM	–
CC[C@H]1Nc2ccc(OC)cc2[C@@H](NS(C)(=O)=O)[C@@H]1C [Compound 8l, N-((2R,3R,4S)-2-Ethyl-6-methoxy-3-methyl-1,2,3,4-tetrahydroquinolin-4-yl)methanesulfonamide]	–	–	–	–	–	–	–	0%
COc1ccc2c(c1)[C@@H](NS(C)(=O)=O)[C@H](C)[C@@H](C(C)C)N2 [Compound 8m, N-((2R,3R,4S)-2-Isopropyl-6-methoxy-3-methyl-1,2,3,4-tetrahydroquinolin-4-yl)methanesulfonamide]	–	–	–	–	–	–	–	0%
CC[C@H]1Nc2ccc(OC)cc2[C@@H](NCc2nccs2)[C@@H]1C [Compound 8n, (2R,3R,4S)-2-Ethyl-6-methoxy-3-methyl-N-(thiazol-2-ylmethyl)-1,2,3,4-tetrahydroquinolin-4-amine]	0%	49%	26.1 µM	–	> 40 µM	> 40 µM	> 40 µM	–
COc1ccc2c(c1)[C@@H](NCc1nccs1)[C@H](C)[C@@H](C(C)C)N2 [Compound 8o, (2R,3R,4S)-2-Isopropyl-6-methoxy-3-methyl-N-(thiazol-2-ylmethyl)-1,2,3,4-tetrahydroquinolin-4-amine]	0%	61%	16.9 µM	–	> 40 µM	> 40 µM	> 40 µM	–
COc1ccc2c(c1)[C@@H](N(Cc1nccs1)Cc1nccs1)[C@H](C)[C@@H](C(C)C)N2 [Compound 8p, (2R,3R,4S)-2-Isopropyl-6-methoxy-3-methyl-N,N-bis(thiazol-2-ylmethyl)-1,2,3,4-tetrahydroquinolin-4-amine]	0%	80%	21.9 µM	–	> 40 µM	> 40 µM	> 40 µM	–
CC[C@H]1Nc2ccc(NC(C)=O)cc2[C@@H](NS(C)(=O)=O)[C@@H]1C [Compound 8q, N-((2R,3R,4S)-2-Ethyl-3-methyl-4-(methylsulfonamido)-1,2,3,4-tetrahydroquinolin-6-yl)acetamide]	0%	18%	–	–	–	–	–	–
C[C@@H]1[C@@H](c2ccccc2)Nc2ccc(-c3ccccc3)cc2[C@H]1NC(=O)OCc1ccccc1 [Compound 9, Benzyl (2S,3R,4S)-3-methyl-2,6-diphenyl-1,2,3,4-tetrahydroquinolin-4-ylcarbamate]	82%	99%	2.2 µM	–	> 40 µM	> 40 µM	> 40 µM	–
